# Results reported in patent publication US20220073941A1, “HERBICIDE-RESISTANT CAMELINA SATIVA PLANTS, AND VARIANT CAMELINA ACETOHYDROXYACID SYNTHASE POLYPEPTIDES” (priority 2019, published 2022).
# Where “and” joins values, the source holds several entries; their conditions need not be identical. Equal entries are not always repeated.
# Key:
# [1] = system: AHAS, enzyme extract of 14CS0851-01-14; test: AHAS product feedback inhibition assay (leucine, isoleucine, valine); type: biochemical, Camelina sativa; conditions: for Absorbance at 530 nm (AHAS product feedback inhibition assay, raw data), Avg: average of replicates per experiment; for Absorbance at 530 nm (AHAS product feedback inhibition assay, raw data): individual replicates, experiments 1-3; for sensitivity of AHAS to feedback inhibition, comparison of enzyme extracts: extracts of 14CS0851-01-14, SRS 934 and MIDAS™ compared, 1 mM, 10 mM, 100 mM
# Experimental: (§1) Briefly, for each of the three comparators, leaf and stem (petiole) material was bulk-harvested at the 3-4 leaf stage from at least 30 plantlets, snap-frozen in liquid nitrogen, and stored at −80° C. The AHAS in vitro assay was conducted according to the method of Singh et al (1988), with modifications by Yu (2010) and Rustgi (2014). For each comparator, 4 grams of frozen material were ground to a fine powder with a mortar and pestle in liquid nitrogen and homogenized in 1 volume of cold extraction buffer containing 100 mM potassium phosphate buffer (pH7.5), 10 mM sodium pyruvate, 5 mM MgCl2, 100 μM flavin adenine dinucleotide (FAD), and 10% glycerol. Four 2-mL microcentrifuge tubes were used for each comparator. The homogenate was centrifuged at 13,000 rpm for 10 min at 4° C., supernatant collected and re-centrifuged for an additional 10 minutes under the same conditions. For each tube, 1 mL of supernatant was pipetted into a new 2-mL microcentrifuge tube, and protein was precipitated by the addition of 1 mL of saturated ammonium sulfate. The solution was mixed well by vortex and allowed to stand on ice for 20 minutes, then centrifuged at 13,000 rpm at 4° C. The protein pellet was resuspended in 300 μL of reaction buffer containing 50 mM potassium phosphate buffer (pH7.5), 100 mM sodium pyruvate, 10 mM MgCl2, 1 mM EDTA, 10 μM FAD, 100 mM NaCl, and 1 mM thiamine pyrophosphate. Tubes of each comparator were combined, mixed well, kept on ice and immediately used in the AHAS activity and feedback inhibition assays.
# (§2) Total protein concentration of the crude extract was determined by the Bradford method (Bradford, 1976). All assays were conducted using 300 μg of total protein each.
# (§3) The feedback inhibition assay was performed by combining equal amounts of extract and amino acids leucine, isoleucine, or valine, respectively, in concentrations of 0.1 mM, 1 mM, 10 mM and 100 mM, according to Yu et al. (2010). The reaction mixture contained 50 μL enzyme extract and 50 μL 100 mM sodium pyruvate and inhibitor amino acid. The reaction was incubated at 37° C. for 60 minutes, then stopped and acetolactate converted to acetoin with the addition of 20 μL of 6 N H2SO4 and incubated at 60° C. for 15 minutes. A separate background “blank” was included for each sample group by adding 20 μL of 6 N H2SO4 prior to the addition of the enzyme extracts. Then, 95 μL of 0.55% w/v creatine solution and 95 μL of α-naphthol solution (5.5% w/v in 5 N NaOH) were added and the mixture incubated at 60° C. for a further 15 minutes. After cooling to room temperature for 15 minutes, enzyme activity was determined colorimetrically by reading the absorbance at 530 nm. Three independent experiments were conducted. Experiment 1 and 2 each contained 2 technical replicates, while experiment 3 included 3 technical replicates.
# [2] = system: AHAS, enzyme extract of MIDAS™; test: as above; type: biochemical, Camelina sativa; conditions: for Absorbance at 530 nm (AHAS product feedback inhibition assay, raw data), Avg: average of replicates per experiment; for Absorbance at 530 nm (AHAS product feedback inhibition assay, raw data): individual replicates, experiments 1-3
# Experimental: as §1, §2, §3
# [3] = system: AHAS, enzyme extract of SRS 934; test: as above; type: biochemical, Camelina sativa; conditions: for Absorbance at 530 nm (AHAS product feedback inhibition assay, raw data), Avg: average of replicates per experiment; for Absorbance at 530 nm (AHAS product feedback inhibition assay, raw data): individual replicates, experiments 1-3
# Experimental: as §1, §2, §3
# [4] = system: resistant lines 12CS0365, 12CS0366, 13CS0786; test: Phenotype scoring (resistant/susceptible) 7 d after 2.5 g ai/ha thifensulfuron-methyl (Example 5); type: in vivo, Camelina sativa
# Text: (§4) At a thifensulfuron-methyl application rate of 2.5 g ai/ha, plants from parental, F2, BC1F1, and BC4F2 populations could easily be scored into one of two discrete phenotypic classes (R, resistant or S, susceptible) 7 d after herbicide application.
# [5] = system: susceptible controls SRS 934, 10CS0048; test: as above; type: in vivo, Camelina sativa; conditions: 7 d after application
# Text: as §4
# 12CS0366 = test: Greenhouse dose-response to thifensulfuron-methyl, plant height and dry biomass (Example 6); type: in vivo, Camelina sativa
# 12CS0365 = test: as above; type: in vivo, Camelina sativa
# [6] = 1 mM amino acid final concentration
# [7] = 10 mM amino acid final concentration
# [8] = 100 mM amino acid final concentration
"Absorbance at 530 nm (AHAS product feedback inhibition assay, raw data), Avg [1, 6]","Absorbance at 530 nm (AHAS product feedback inhibition assay, raw data), Avg [1, 7]","Absorbance at 530 nm (AHAS product feedback inhibition assay, raw data), Avg [1, 8]","sensitivity of AHAS to feedback inhibition, comparison of enzyme extracts [1]","Absorbance at 530 nm (AHAS product feedback inhibition assay, raw data), Avg [2, 6]","Absorbance at 530 nm (AHAS product feedback inhibition assay, raw data), Avg [2, 7]","Absorbance at 530 nm (AHAS product feedback inhibition assay, raw data), Avg [2, 8]","Absorbance at 530 nm (AHAS product feedback inhibition assay, raw data), Avg [3, 6]","Absorbance at 530 nm (AHAS product feedback inhibition assay, raw data), Avg [3, 7]","Absorbance at 530 nm (AHAS product feedback inhibition assay, raw data), Avg [3, 8]",SMILES,"Absorbance at 530 nm (AHAS product feedback inhibition assay, raw data) [1, 6]","Absorbance at 530 nm (AHAS product feedback inhibition assay, raw data) [1, 7]","Absorbance at 530 nm (AHAS product feedback inhibition assay, raw data) [1, 8]","Absorbance at 530 nm (AHAS product feedback inhibition assay, raw data) [2, 6]","Absorbance at 530 nm (AHAS product feedback inhibition assay, raw data) [2, 7]","Absorbance at 530 nm (AHAS product feedback inhibition assay, raw data) [2, 8]","Absorbance at 530 nm (AHAS product feedback inhibition assay, raw data) [3, 6]","Absorbance at 530 nm (AHAS product feedback inhibition assay, raw data) [3, 7]","Absorbance at 530 nm (AHAS product feedback inhibition assay, raw data) [3, 8]",further results
0.204 and 0.149 and 0.094,0.174 and 0.136 and 0.064,0.122 and 0.056,no significant difference,0.2245 and 0.180 and 0.106,0.1775 and 0.166 and 0.093,0.148 and 0.152 and 0.090,0.204 and 0.192 and 0.089,0.1785 and 0.162 and 0.085,0.1475 and 0.136 and 0.080,CC(C)C[C@H](N)C(=O)O [leucine],0.214 and 0.194 and 0.162 and 0.136 and 0.079 and 0.099 and 0.105,0.183 and 0.165 and 0.151 and 0.120 and 0.066 and 0.061 and 0.067,0.146 and 0.14 and 0.138 and 0.105 and 0.051 and 0.060 and 0.057,0.215 and 0.234 and 0.198 and 0.162 and 0.102 and 0.105 and 0.112,0.178 and 0.177 and 0.181 and 0.150 and 0.096 (2×) and 0.088,0.142 and 0.154 and 0.153 and 0.150 and 0.078 and 0.096 (2×),0.2 and 0.208 and 0.225 and 0.158 and 0.097 and 0.085 and 0.086,0.17 and 0.187 and 0.163 and 0.140 and 0.092 and 0.091 and 0.071,0.154 and 0.141 and 0.167 and 0.104 and 0.084 and 0.068 and 0.089,
,,,,,,,,,,COC(=O)c1sccc1S(=O)(=O)NC(=O)Nc1nc(C)nc(OC)n1 [thifensulfuron-methyl],,,,,,,,,,"phenotype after herbicide application [4]: consistently produced a resistant phenotype; phenotype after herbicide application [5]: either killed or greatly damaged; Ratio of ED50 biomass values, estimate (12CS0366; 12CS0366/13CS0786): 0.0968; Ratio of ED50 height values, estimate (12CS0366; 12CS0366/13CS0786): 0.20; Ratio of ED50 biomass values, estimate (12CS0366; 12CS0366/SRS 934): 99.70; Ratio of ED50 height values, estimate (12CS0366; 12CS0366/SRS 934): 36.9; Ratio of ED50 biomass values, estimate (12CS0365; 12CS0365/12CS0366): 0.08; Ratio of ED50 height values, estimate (12CS0365; 12CS0365/12CS0366): 0.35; Ratio of ED50 biomass values, estimate (12CS0365; 12CS0365/13CS0786): 0.008; Ratio of ED50 height values, estimate (12CS0365; 12CS0365/13CS0786): 0.02; Ratio of ED50 biomass values, estimate (12CS0365; 12CS0365/SRS 934): 7.93; Ratio of ED50 height values, estimate (12CS0365; 12CS0365/SRS 934): 12.72"
0.213 and 0.207 and 0.080,0.196 and 0.178 and 0.073,0.1485 and 0.155 and 0.057,no significant difference,0.2475 and 0.203 and 0.117,0.214 and 0.191 and 0.112,0.1815 and 0.166 and 0.089,0.231 and 0.181 and 0.094,0.184 and 0.179 and 0.093,0.1625 and 0.142 and 0.070,CC(C)[C@H](N)C(=O)O [valine],0.216 and 0.21 and 0.227 and 0.187 and 0.079 and 0.080 and 0.082,0.203 and 0.189 and 0.190 and 0.166 and 0.057 and 0.84 and 0.80,0.155 and 0.142 and 0.176 and 0.133 and 0.054 and 0.061 and 0.056,0.252 and 0.243 and 0.239 and 0.166 and 0.115 and 0.116 and 0.122,0.205 and 0.223 and 0.217 and 0.113 and 0.110 and 0.112,0.174 and 0.189 and 0.171 and 0.161 and 0.084 and 0.091 and 0.092,0.236 and 0.226 and 0.198 and 0.163 and 0.086 and 0.098 and 0.100,0.186 and 0.182 and 0.206 and 0.151 and 0.091 (2×) and 0.096,0.168 and 0.157 and 0.184 and 0.100 and 0.071 and 0.072 and 0.067,
